The values that follow come from patent US12116388B2, “Amylin receptor agonists” (Novo Nordisk A/S, priority 2022, dated 2024).

Each structure is given as a SMILES string. Starred links: 1 amine or outer side, 2 acyl side, 3 side chain; linkers in the order of their positions; H or OH if unused. Residues, ends and D or L forms follow the SMILES beside them. Groups on a side chain read outwards from the residue. *: point of attachment. C18 diacid = O=C(O)CCCCCCCCCCCCCCCCC(=O)*; C16 diacid = O=C(O)CCCCCCCCCCCCCCC(=O)*; γGlu = O=C(O)[C@H](CCC(=O)[*:2])N[*:1]

For orientation: EC50 means the midpoint of the concentration-response curve.

Assay [1] concerns the target T1, human amylin receptor (hAMYR3) (Homo sapiens, UniProt O60896+P30988).
T1 construct: host or cells: BHK (Baby Hamster Kidney), Hollex-1 cell line further transfected with RAMP3
The assay can be described thus: Human amylin receptor (hAMYR3) in vitro potency assay, CRE-luciferase reporter in BHK cells. It counts as cell-based. The note with it: BHK hAMYR3/CRE-Luc cells, 3 hours incubation, assay buffer with 1% ovalbumin. An outline of the steps:
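BHK cells stably expressing human calcitonin receptor (a) plus RAMP3 and a CRE-luciferase reporter, seeded overnight, then exposed to 7-point 7-fold dilutions (often from ~10 nM) in DMEM/HEPES buffer with 1% ovalbumin for 3 h at 37 °C. Luciferase luminescence read after SteadyLite Plus addition.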

The target of assay [2] is T2, human calcitonin receptor (hCTR) (Homo sapiens, UniProt P30988).
T2 construct: host or cells: BHK (Baby Hamster Kidney), Hollex-1 cell line
T2 sequence (P30988 25-474): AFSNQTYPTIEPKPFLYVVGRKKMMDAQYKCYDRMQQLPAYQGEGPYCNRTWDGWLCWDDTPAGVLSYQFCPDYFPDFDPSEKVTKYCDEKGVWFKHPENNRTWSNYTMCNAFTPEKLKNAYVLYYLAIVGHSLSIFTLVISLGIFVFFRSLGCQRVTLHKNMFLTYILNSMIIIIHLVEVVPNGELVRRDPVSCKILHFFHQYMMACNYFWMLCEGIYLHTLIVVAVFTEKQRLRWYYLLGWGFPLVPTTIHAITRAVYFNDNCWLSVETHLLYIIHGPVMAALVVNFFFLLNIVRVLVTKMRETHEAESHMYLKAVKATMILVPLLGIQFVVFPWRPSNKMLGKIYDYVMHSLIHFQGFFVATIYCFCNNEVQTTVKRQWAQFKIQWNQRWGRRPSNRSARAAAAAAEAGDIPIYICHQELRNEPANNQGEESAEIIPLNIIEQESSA
The assay can be described thus: Human calcitonin receptor (hCTR) in vitro potency assay, CRE-luciferase reporter in BHK cells. It is filed as cell-based. The note with it: BHK hCTR/CRE-Luc cells, 3 hours incubation, assay buffer with 1% ovalbumin; read-out: hCalcR potency, EC50. An outline of the steps:
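BHK cells stably co-expressing human calcitonin receptor and a CRE-luciferase reporter, seeded the day before, were exposed to 7-fold serial dilutions (7 concentrations, often starting near 10 nM) in DMEM/HEPES/1% ovalbumin buffer for 3 h at 37 °C. Luminescence was then read after SteadyLite Plus addition.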

T1 sequence (O60896 24-148, one chain of several): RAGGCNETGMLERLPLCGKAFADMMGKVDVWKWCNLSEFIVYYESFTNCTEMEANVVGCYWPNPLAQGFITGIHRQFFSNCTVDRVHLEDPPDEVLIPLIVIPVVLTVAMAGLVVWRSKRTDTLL

On to `CC[C@H](C)[C@H](NC(=O)[C@H](CCCCNC(=O)CC[C@H](NC(=O)CCCCCCCCCCCCCCCCC(=O)O)C(=O)O)NC(=O)CNC(=O)[C@H](Cc1ccccc1)NC(=O)[C@@H]1CCCN1C(=O)[C@H](CC(=O)O)NC(=O)[C@H](CO)NC(=O)[C@H](CO)NC(=O)[C@H](Cc1c[nH]cn1)NC(=O)[C@H](Cc1c[nH]cn1)NC(=O)[C@H](CC(C)C)NC(=O)[C@H](Cc1ccccc1)NC(=O)[C@H](CCC(=O)O)NC(=O)[C@H](C)NC(=O)[C@H](CC(C)C)NC(=O)[C@H](CCCNC(=N)N)NC(=O)[C@H](CCC(N)=O)NC(=O)[C@@H](NC(=O)[C@H](CCC(N)=O)NC(=O)[C@H](C)NC(=O)[C@@H](NC(=O)[C@H](CO)NC(=O)[C@H](CC(C)C)NC(=O)[C@H](CCC(N)=O)NC(=O)[C@H](CO)NC(=O)[C@H](C)NC(C)=O)[C@@H](C)O)[C@@H](C)O)C(=O)N1CCC[C@H]1C(=O)N[C@@H](CO)C(=O)N[C@@H](CO)C(=O)N[C@H](C(=O)N[C@@H](CC(=O)O)C(=O)N[C@H](C(=O)NCC(=O)N1CCC[C@H]1C(=O)N[C@@H](CC(=O)O)C(=O)N[C@H](C(=O)N1CCC[C@H]1C(N)=O)[C@@H](C)O)C(C)C)[C@@H](C)O` [Compound 19, N^1-acetyl,N{Epsilon-25}-[(4S)-4-carboxy-4-(17-carboxyheptadecanoylamino)butanoyl]-[Ala1,Ser2,Gln3,Leu4,Ser5,Ala7,Gln8,Glu14,His17,Asp21,Pro22,Lys25,Pro27,Asp31,Pro34,Asp35,Pro37]-human amylin] (Ac-ASQLSTAQTQRLAEFLHHSSDPFGK([γGlu-C18 diacid])IPSSTDVGPDTP-NH2), for which the half-maximal effective concentration (EC50) is 1.5 pM in assay [1] and 1 pM in assay [2].
In the case of `CC[C@H](C)[C@H](NC(=O)[C@@H]1CCCN1C(=O)CNC(=O)[C@H](Cc1ccccc1)NC(=O)[C@H](CC(N)=O)NC(=O)[C@H](CC(=O)O)NC(=O)[C@H](CO)NC(=O)[C@H](CO)NC(=O)[C@H](Cc1c[nH]cn1)NC(=O)[C@H](Cc1c[nH]cn1)NC(=O)[C@H](CC(C)C)NC(=O)[C@H](Cc1ccccc1)NC(=O)[C@H](CCC(=O)O)NC(=O)[C@H](C)NC(=O)[C@H](CC(C)C)NC(=O)[C@H](CCCNC(=N)N)NC(=O)[C@H](C)NC(=O)[C@@H](NC(=O)[C@H](CCC(N)=O)NC(=O)[C@H](C)NC(=O)[C@@H](NC(=O)[C@H](CO)NC(=O)[C@H](CC(C)C)NC(=O)[C@H](Cc1c[nH]cn1)NC(=O)[C@H](CO)NC(=O)[C@H](C)NC(=O)CC[C@H](NC(=O)CCCCCCCCCCCCCCC(=O)O)C(=O)O)[C@@H](C)O)[C@@H](C)O)C(=O)N[C@@H](CC(C)C)C(=O)N1CCC[C@H]1C(=O)N1CCC[C@H]1C(=O)N[C@H](C(=O)N[C@@H](CC(=O)O)C(=O)N[C@H](C(=O)NCC(=O)N[C@@H](CO)C(=O)N[C@@H](CC(N)=O)C(=O)N[C@H](C(=O)N1CCC[C@H]1C(N)=O)[C@@H](C)O)C(C)C)[C@@H](C)O` [Compound 20, N^1-[(4S)-4-carboxy-4-(15-carboxypentadecanoylamino)butanoyl]-[Ala1,Ser2,His3,Leu4,Ser5,Ala7,Gln8,Ala10,Glu14,His17,Asp21,Pro25,Pro28,Pro29,Asp31,Pro37]-human amylin] ({C16 diacid-γGlu}-ASHLSTAQTARLAEFLHHSSDNFGPILPPTDVGSNTP-NH2), the concentration giving a half-maximal response (EC50) in assay [1] was 1.62 pM; in assay [2], 1.5 pM.
For the compound `CC[C@H](C)[C@H](NC(=O)[C@@H]1CCCN1C(=O)CNC(=O)[C@H](Cc1ccccc1)NC(=O)[C@H](CC(N)=O)NC(=O)[C@H](CC(=O)O)NC(=O)[C@H](CO)NC(=O)[C@H](CO)NC(=O)[C@H](Cc1c[nH]cn1)NC(=O)[C@H](Cc1c[nH]cn1)NC(=O)[C@H](CC(C)C)NC(=O)[C@H](Cc1ccccc1)NC(=O)[C@H](CCC(=O)O)NC(=O)[C@H](C)NC(=O)[C@H](CC(C)C)NC(=O)[C@H](CCCNC(=N)N)NC(=O)[C@H](CCC(N)=O)NC(=O)[C@@H](NC(=O)[C@H](CCC(N)=O)NC(=O)[C@H](C)NC(=O)[C@@H](NC(=O)[C@H](CO)NC(=O)[C@H](CC(C)C)NC(=O)[C@H](Cc1c[nH]cn1)NC(=O)[C@H](CO)NC(=O)[C@H](C)NC(=O)CC[C@H](NC(=O)CCCCCCCCCCCCCCCCC(=O)O)C(=O)O)[C@@H](C)O)[C@@H](C)O)C(=O)N[C@@H](CC(C)C)C(=O)N1CCC[C@H]1C(=O)N1CCC[C@H]1C(=O)N[C@H](C(=O)N[C@@H](CC(=O)O)C(=O)N[C@H](C(=O)NCC(=O)N[C@@H](CO)C(=O)N[C@@H](CC(N)=O)C(=O)N[C@H](C(=O)N1CCC[C@H]1C(N)=O)[C@@H](C)O)C(C)C)[C@@H](C)O` [Compound 21, N^1-[(4S)-4-carboxy-4-(17-carboxyheptadecanoylamino)butanoyl]-[Ala1,Ser2,His3,Leu4,Ser5,Ala7,Gln8,Glu14,His17,Asp21,Pro25,Pro28,Pro29,Asp31,Pro37]-human amylin] ({C18 diacid-γGlu}-ASHLSTAQTQRLAEFLHHSSDNFGPILPPTDVGSNTP-NH2), the EC50 is 1.64 pM in assay [1] and 1.89 pM in assay [2].
Regarding `CC[C@H](C)[C@H](NC(=O)[C@@H]1CCCN1C(=O)CNC(=O)[C@H](Cc1ccccc1)NC(=O)[C@H](CC(N)=O)NC(=O)[C@H](CC(=O)O)NC(=O)[C@H](CO)NC(=O)[C@H](CO)NC(=O)[C@H](Cc1c[nH]cn1)NC(=O)[C@H](Cc1c[nH]cn1)NC(=O)[C@H](CC(C)C)NC(=O)[C@H](Cc1ccccc1)NC(=O)[C@H](CCC(=O)O)NC(=O)[C@H](C)NC(=O)[C@H](CC(C)C)NC(=O)[C@H](CCCNC(=N)N)NC(=O)[C@H](C)NC(=O)[C@@H](NC(=O)[C@H](CCC(N)=O)NC(=O)[C@H](C)NC(=O)[C@@H](NC(=O)[C@H](CO)NC(=O)[C@H](CC(C)C)NC(=O)[C@H](C)NC(=O)[C@H](CO)NC(=O)[C@H](C)NC(=O)CC[C@H](NC(=O)CCCCCCCCCCCCCCCCC(=O)O)C(=O)O)[C@@H](C)O)[C@@H](C)O)C(=O)N[C@@H](CC(C)C)C(=O)N1CCC[C@H]1C(=O)N1CCC[C@H]1C(=O)N[C@H](C(=O)N[C@@H](CC(=O)O)C(=O)N[C@H](C(=O)NCC(=O)N[C@@H](CO)C(=O)N[C@@H](CC(N)=O)C(=O)N[C@H](C(=O)N1CCC[C@H]1C(N)=O)[C@@H](C)O)C(C)C)[C@@H](C)O` [Compound 23, N^1-[(4S)-4-carboxy-4-(17-carboxyheptadecanoylamino)butanoyl]-[Ala1,Ser2,Ala3,Leu4,Ser5,Ala7,Gln8,Ala10,Glu14,His17,Asp21,Pro25,Pro28,Pro29,Asp31,Pro37]-human amylin] ({C18 diacid-γGlu}-ASALSTAQTARLAEFLHHSSDNFGPILPPTDVGSNTP-NH2), the figures for the EC50 in assay [1] and in assay [2] were 1.62 pM and 1.58 pM, respectively.
Taken in the same sequence, the figures for `CC[C@H](C)[C@H](NC(=O)[C@H](C)NC(=O)CNC(=O)[C@H](Cc1ccccc1)NC(=O)[C@@H]1CCCN1C(=O)[C@H](CC(=O)O)NC(=O)[C@H](CO)NC(=O)[C@H](CO)NC(=O)[C@H](Cc1c[nH]cn1)NC(=O)[C@H](Cc1c[nH]cn1)NC(=O)[C@H](CC(C)C)NC(=O)[C@H](Cc1ccccc1)NC(=O)[C@H](CCC(=O)O)NC(=O)[C@H](C)NC(=O)[C@H](CC(C)C)NC(=O)[C@H](CCCNC(=N)N)NC(=O)[C@H](CCC(N)=O)NC(=O)[C@@H](NC(=O)[C@H](CCC(N)=O)NC(=O)[C@H](C)NC(=O)[C@@H](NC(=O)[C@H](CO)NC(=O)[C@H](CC(C)C)NC(=O)[C@H](Cc1c[nH]cn1)NC(=O)[C@H](CO)NC(=O)[C@H](C)NC(=O)CC[C@H](NC(=O)CCCCCCCCCCCCCCCCC(=O)O)C(=O)O)[C@@H](C)O)[C@@H](C)O)C(=O)N1CCC[C@H]1C(=O)N[C@@H](CO)C(=O)N[C@@H](CO)C(=O)N[C@H](C(=O)N[C@@H](CC(=O)O)C(=O)N[C@H](C(=O)NCC(=O)N1CCC[C@H]1C(=O)N[C@@H](CC(N)=O)C(=O)N[C@H](C(=O)N1CCC[C@H]1C(N)=O)[C@@H](C)O)C(C)C)[C@@H](C)O` [Compound 26, N^1-[(4S)-4-carboxy-4-(17-carboxyheptadecanoylamino)butanoyl]-[Ala1,Ser2,His3,Leu4,Ser5,Ala7,Gln8,Glu14,His17,Asp21,Pro22,Pro27,Asp31,Pro34,Pro37]-human amylin] ({C18 diacid-γGlu}-ASHLSTAQTQRLAEFLHHSSDPFGAIPSSTDVGPNTP-NH2) were 1.31 pM and 2.19 pM.
